Results as given in patent US20070275932A1, “Aryl, heteroaromatic and bicyclic aryl nitrone compounds, prodrugs and pharmaceutical compositions of the same to treat human disorders” (Renovis, Inc., priority 2003, published 2007).

Experiment: Free radical-scavenging/antioxidant assay (DPPH)
Assay type: biochemical
Details: 50 μM DPPH in 80% methanol, absorbance at 520 nm, 24 h time point (steady state); read-out: EC50 (concentration at which a compound reduces by 50% the peak absorbance of DPPH at 520 nm)
Procedure: Nitrone compounds of the present invention were tested for their free-radical scavenging/antioxidant activity in an in vitro assay that is accepted by those skilled in the art as a model for conditions involving the generation of free radicals. The assay is based on a reaction between a free-radical donor, 2,2-diphenyl-1-picrylhydrazyl (DPPH), and a radical scavenger/antioxidant to be tested for free-radical scavenging activity. Upon donation of the free-radical electron to the purported radical scavenger, the peak visible absorbance of DPPH (515-520 nm) decreases so that optical density readings at this part of the visual spectrum reflect the progression of the following reaction: DPPH∩+AH→DPPH-H+A∩ where AH is a hypothetical radical scavenger/antioxidant. The assay is based on a protocol originally detailed in Brand-Williams, W. et al., 1995, Use of a Free Radical Method to Evaluate Antioxidant Activity, Lebensm. Wiss. Technol., 28:25-30, with further modifications described in L. R. Fukumoto and G. Mazza, 2000, Assessing Antioxidant and Prooxidant Activities of Phenolic Compounds, J. Agric. Food Chem., 48:3597-3604.
The antioxidant assay was performed using Perkin-Elmer 96-well, clear-bottom, black-wall plates (ordered from E & K Scientific Products) and a Tecan Safire absorbance plate reader. The positive controls were Trolox (6-hydroxy-2,5,7,8-tetramethylchromane-2-carboxylic acid, Sigma-Aldrich), BHA (2(3)-tert-butylhydroquinone monomethyl ether, Sigma-Aldrich), PBN (C-(phenyl)-N-(tert-butyl)nitrone, Sigma-Aldrich) and S-PBN (C-(2-sulfophenyl)-N-(tert-butyl)nitrone, sodium salt, prepared according to E. G. Janzen and R. V. Shetty, 1979, Tetrahedron Lett., 35: 3229-32), and the negative control (i.e., vehicle) was DMSO. In brief, 2 μL of 100×DMSO stock of the desired final concentration of each control or nitrone compound to be tested in the same batch was added to a separate well. To each well was then added 198 μL of a freshly made 50 μM DPPH (Sigma-Aldrich) solution in 80% methanol using a multi-channel pipette. The absorbance was immediately read on the plate reader at 520 nm and thereafter read periodically to assess kinetics until all reactions reached completion (i.e., steady state). Since the steady-state point was 24 h, the assay results are shown from the 24 h time point. The absorbance at 520 nm (OD) was plotted versus the concentrations of the controls and nitrone compounds to assess dose-response and interpolate the EC50 values of the controls and test compounds.

SMILES | EC50 [µM]
[O-]/[N+](=C\c1ccccc1Sc1ccc(Cl)cc1)Cc1ccccc1 [Example 28, N-Benzyl-C-[2-(4-chlorophenylthio)phenyl]nitrone] | 100 to 500
CC(C)Sc1ccccc1/C=[N+](\[O-])C(C)(C)C [Example 34, N-(tert-Butyl)-C-[2-(isopropylthio)phenyl]nitrone] | > 1000
COc1cc(/C=[N+](\[O-])C2CCCCC2)c(C(=O)O)c(OC)c1 [Example 11, N-Cyclohexyl-C-(2-carboxy-3,5-dimethoxyphenyl)nitrone] | 10 to 100

Other lines, results leading:

EC50 [µM] | SMILES
> 1000 | [O-]/[N+](=C\c1ccccc1-n1ccnc1)C1CCCCC1 [Example 15, N-Cyclohexyl-C-[2-(imidazol-1-yl)phenyl]nitrone]
> 1000 | [O-]/[N+](=C\c1ccccc1-n1ccnc1)Cc1ccccc1 [Example 16, N-Benzyl-C-[2-(imidazol-1-yl)phenyl]nitrone]
> 1000 | CC(C)(C)/[N+]([O-])=C/c1ccccc1-n1ccnc1 [Example 14, N-(tert-Butyl)-C-[2-(imidazol-1-yl)phenyl]nitrone]
